Measured values from US7956086B2, “Methods for the formulation and manufacture of artesunic acid for injection” (priority 2006, dated 2011).

Tests used:
[1] = Storage stability of bulk artesunic acid; assay type: physicochemical; settings: 20 months at 25° C.
Protocol: Six thousand dry-filled vials of formulated artesunate for clinical use have been packaged. One thousand of the vials have been reserved for long-term stability testing under various conditions, including elevated temperatures and humidities, to test the integrity and durability of the packaging system. As packaged for clinical use, 20 ml vials have been dry-filled with 110 mg of ethylene oxide sterilized artesunate, stoppered, and sealed.
The sterilized bulk drug of the invention has been tested and is still undergoing stability studies. […] The stability studies are still ongoing.

[2] = in vivo
Excerpt: Patients were given a single dose of 1-4 milligrams per kilogram body weight in the form of an injection through an IV catheter (a tube with a needle attached) once a day for 3 days in a row.

[3] = stored under nitrogen @ 25° C., studies at Knoll; cited from earlier work

Question: For C[C@H]1[C@H](OC(=O)CCC(=O)O)O[C@@H]2O[C@@]3(C)CC[C@H]4[C@H](C)CC[C@@H]1[C@@]24OO3 (relative stereo) [artesunic acid, butanedioic Acid, [3R-(3α,5a,6,8a,9α,10α,12,12a R*)]-mono(decahydro-3,6,9-trimethyl-3,12-epoxy-12H-pyrano[4,3-j]-1,2-benzodioxepin-10-yl)ester], which “degradation of sterilized bulk drug on storage” value [1] is on record?
Answer: Its value is “no evidence of degradation”.

Question: What about the adverse effects [2] of the same compound?
Answer: Its adverse effects is “no adverse effects”.

Question: And the “stability of bulk artesunic acid” value [3]?
Answer: The value was “at least two years stability”.
